Test system: histamine H1-receptor
Assay: inhibition of histamine induced bronchoconstriction in vivo
Set-up: species or system guinea pig
Settings: anaesthetised guinea pigs, intravenous injection, histamine dose-response curve 5 minutes later
Experimental: Guinea pigs of either sex are anaesthetised by intraperitoneal injection of sodium pentobarbitone, 90 mg/kg. The trachea is cannulated. The animal is respired artificially with a fixed volume of air just adequate to inflate the lungs. The pressure needed to inflate the lungs is monitored from the respiratory system using a low pressure transducer. Intravenous injection of histamine causes dose-dependent increases in the pressure to inflate the lungs reflecting the bronchoconstrictor action of histamine. Responses to histamine can be antagonised using histamine H1 -receptor antagonists.
Dose-response curves to histamine are established at 20, 40, 80, 160 and 320 nmols/kg. Antagonists are then administered by intravenous injection and 5 minutes later a new histamine dose-response curve is established increasing the doses of histamine as necessary. The effect of the antagonist can be quantified by the displacement, to the right, of the histamine dose-response curve, expressed as a dose-ratio. A series of doses of antagonists may be given to each animal allowing calculation of dose-ratios for each dose of antagonist. For the compounds of Examples 1, 2 and 4, the doses (μmol/kg) required to give a dose ratio of 11 ((DR-1)=10) are 0.022, 0.06 and 0.0048 respectively.

SMILES	dose required to give a dose ratio of 11 ((DR-1)=10)
O=c1nc(NCCCC2CCCc3cccnc32)[nH]cc1Cc1cc[n+]([O-])cc1 (stereo not drawn) [Example 1, 2-[3-(5,6,7,8-Tetrahydroquinol-8-yl)propylamino]-5-[1-oxopyrid-4-ylmethyl]-4(1H)-pyrimidone]	0.022 µmol/kg
Cc1ccc(Cc2c[nH]c(NCCCC3CCCc4cccnc43)nc2=O)cn1 (stereo not drawn) [Example 2, 2-[3-(5,6,7,8-Tetrahydroquinol-8-yl)propylamino]-5-(6-methylpyrid-3-ylmethyl)-4(1H)-pyrimidone]	0.06 µmol/kg
O=c1nc(NCCCC2CCCc3cccnc32)[nH]cc1Cc1ccc(CO)nc1 (stereo not drawn) [Example 4, 2-[3-(5,6,7,8-Tetrahydroquinol-8-yl)propylamino]-5-(6-hydroxymethylpyrid-3-ylmethyl)-4(1H)-pyrimidone]	0.0048 µmol/kg

Source: patent US4727076A, “Tetrahydroquinolinylalkyl amino pyridones and ring homologues thereof, useful as histamine-H1 -receptor antagonists” (Smith Kline & French Laboratories Ltd., priority 1986, dated 1988)
